From patent US3975529A, “Diebenzo(B,E)thiepines” (Roussel-UCLAF, priority 1974, dated 1976)
Structures can show the parent of a compound that is named as a salt. Where two headings read alike, the source gives them in different places.

What was measured:
[1] = system: trembling and peripherical cholinergic manifestations provoked by tremorine; assay: Antitremorine activity as a function of time (Table I); type: in vivo, mice
Procedure: (§1) The antagonism of the test compounds to the trembling and peripherical cholinergic manifestations provoked by tremorine [Everett et al, Science, Vol. 124 (1956), p. 79] was studied on mice.
The products of Examples 2 and 3 were administered subcutaneously in sesame oil solution at doses of 200 and 400 mg/kg at a volume of 25 ml/kg to groups of 10 mice. The mice receied intraperitoneal injections of 20 mg/kg of tremorine either for 4 hours, one day, 2, 3 or 4 days after injection of the test product. […] The reactions (T-trembling; S-salivation; L-lacrymation) were noted 10, 20, 30 and 60 minutes after the tremorine injection and the percent of inhibition of the different reactions at the height of the effect after injection of tremorine were noted as a function of time.

[2] = system: antinociceptive activity of oxotremorine; assay: Antagonism of antinociceptive activity of oxotremorine, hot plate (Table III); type: in vivo, mice
Procedure: The antinociceptive activity of oxotremorine [Leslie, J. Pharm. Pharmae., Vol. 2 (1969), p. 248-50] was determined on mice using the hot plate method of Eddy et al [J. Pharmacol. Vol. 107 (1953), p. 385] in the presence and absence of the test product presumed to be antagonistic. The product of Example 1 was administered subcutaneously in aqueous solution at doses of 50 and 100 mg/kg to groups of 10 mice and the products of Examples 2 to 5 were subcutaneously administered in sesame oil solution at doses of 200 and 400 mg/kg to groups of 10 mice. The mice then received a single intraperitoneal injection of 0.5 mg/kg of oxotremorine either 4 hours, 1 day, 2, 3, 4 or 7 days after the test product administration. For each time considerated, the mice were placed on the hot plate one half hour after the oxotremorine administration and the time for the appearance of nociceptive refluxes consistituted by simultaneous licking of the front paws was noted. The maximum time of staying on the hot plate was fixed at 45 seconds and the percentage of animals with a reaction time (RT) less than 40 seconds in spite of oxotremorine administration was determined.

[3] = system: trembling and peripherial cholinergic manifestations provoked by oxotremorine; assay: Antioxotremorine activity: antagonism to the trembling and peripherial cholinergic manifestations (Table II); type: in vivo, mice
Procedure: The antagonism of the test products to the trembling and peripherial cholinergic manifestations provoked by oxotremorine [Cho et al, J. Biochem. Biophys. Res. Commun., Vol. 5, (196l) p. 276] was studied on mice. The product of Example 1 was administered subcutaneously in aqueous solution at doses of 50 and 100 mg/kg to groups of 10 mice and the products of Example 2 were subcutaneously administered in sesame oil solution at doses of 200 and 400 mg/kg to groups of 10 mice. Control animals received no vehicle. The mice then received a single intraperitoneal dose of 0.5 mg/kg of oxotremorine either 4 hours, 1 day, 2, 3, 4 or 7 days after the injection of the test product. The reaction of the animals as in Table I were recorded 5,10 and 15 minutes after the injection of oxotremorine and the percent of inhibition of the different reactions, at the height of the effect, after the oxotremorine injection was determined as a function of time.

[4] = Acute toxicity study (LD50); set-up: species or system mice; conditions: mouse, in vivo, aqueous solution
Procedure: The acute toxicity of the products was determined intraperitoneally or subcutaneously on mice weighing about 20 g with the LD50 dose being calculated by the method of Litchfield et al [J. Pharmacol. exp. Therap., Vol. 96 (1949), p. 99-133]. The LD50 for the product of Example 1 in aqueous solution was about 100 mg/kg intraperitoneally after 2 days of observation and about 500 mg/kg subcutaneously after 5 days of observation.

[5] = system: trembling and peripherical cholinergic manifestations provoked by tremorine; assay: Antitremorine activity (ED50); type: in vivo; conditions: mice; for ED50: Mus musculus, ip, i.p. aqueous solution, tremorine 20 mg/kg i.p. half an hour after
Procedure: as §1
The product of Example 1 in aqueous solution was intraperitoneally administered at doses of 0.5, 1,2 and 5 mg/kg to groups of 10 mice and the mice received an intraperitoneal injection of 20 mg/kg of tremorine half an hour after the test product. The reactions (trembling, salivation, lacrymation) of the animals were observed 10, 20, 30 and 60 minutes after the tremorine injection. At the height of the activity, the 50% efficacy dose (ED50) in which 50% of the animals were protected from the trembling and peripheral parasympathomimetic reactions of salivation and lacrymation normally provoked by tremorine injection were determined.

[6] = 200 mg/kg s.c. sesame oil, after 4 h
[7] = 200 mg/kg s.c. sesame oil, after 1 d
[8] = 200 mg/kg s.c. sesame oil, after 2 d
[9] = 200 mg/kg s.c. sesame oil, after 3 d
[10] = 200 mg/kg s.c. sesame oil, after 4 d
[11] = 400 mg/kg s.c. sesame oil, after 4 h
[12] = 400 mg/kg s.c. sesame oil, after 1 d
[13] = 400 mg/kg s.c. sesame oil, after 2 d
[14] = 400 mg/kg s.c. sesame oil, after 3 d
[15] = 400 mg/kg s.c. sesame oil, after 4 d
[16] = 200 mg/kg s.c. sesame oil, after 7 d
[17] = 400 mg/kg s.c. sesame oil, after 7 d
[18] = 50 mg/kg s.c. aqueous solution, after 4 h
[19] = 50 mg/kg s.c. aqueous solution, after 1 d
[20] = 100 mg/kg s.c. aqueous solution, after 4 h
[21] = 100 mg/kg s.c. aqueous solution, after 1 d

CCC(=O)OCCN1C2CCC1CC(=C1c3ccccc3CSc3ccccc31)C2 (racemic) [Example 2, dl N-(β-propionyloxyethyl)-11-(3'-nortropylidene)-6,11-dihydrodibenzo(b,e)thiepine]
% inhibition of reactions: L (lacrymation) [1, 6]: 100%
% inhibition of reactions: S (salivation) [1, 6]: 90%
% inhibition of reactions: T (trembling) [1, 6]: 100%
% inhibition of reactions: L (lacrymation) [1, 7]: 100%
% inhibition of reactions: S (salivation) [1, 7]: 90%
% inhibition of reactions: T (trembling) [1, 7]: 90%
% inhibition of reactions: L (lacrymation) [1, 8]: 40%
% inhibition of reactions: S (salivation) [1, 8]: 0%
% inhibition of reactions: T (trembling) [1, 8]: 0%
% inhibition of reactions: L (lacrymation) [1, 9]: 100%
% inhibition of reactions: S (salivation) [1, 9]: 50%
% inhibition of reactions: T (trembling) [1, 9]: 20%
% inhibition of reactions: L (lacrymation) [1, 10]: 60%
% inhibition of reactions: S (salivation) [1, 10]: 0%
% inhibition of reactions: T (trembling) [1, 10]: 0%
% inhibition of reactions: L (lacrymation) [1, 11]: 100%
% inhibition of reactions: S (salivation) [1, 11]: 100%
% inhibition of reactions: T (trembling) [1, 11]: 100%
% inhibition of reactions: L (lacrymation) [1, 12]: 100%
% inhibition of reactions: S (salivation) [1, 12]: 100%
% inhibition of reactions: T (trembling) [1, 12]: 100%
% inhibition of reactions: L (lacrymation) [1, 13]: 100%
% inhibition of reactions: S (salivation) [1, 13]: 70%
% inhibition of reactions: T (trembling) [1, 13]: 40%
% inhibition of reactions: L (lacrymation) [1, 14]: 100%
% inhibition of reactions: S (salivation) [1, 14]: 20%
% inhibition of reactions: T (trembling) [1, 14]: 10%
% inhibition of reactions: L (lacrymation) [1, 15]: 60%
% inhibition of reactions: S (salivation) [1, 15]: 90%
% inhibition of reactions: T (trembling) [1, 15]: 50%
antitremorine activity (in words) ([1]; s.c. sesame oil, mice, Table I): prolonged antitremorine activity
% of animals with a RT less than 40 seconds [2, 6]: 100%
% of animals with a RT less than 40 seconds [2, 7]: 100%
% of animals with a RT less than 40 seconds [2, 8]: 90%
% of animals with a RT less than 40 seconds [2, 9]: 50%
% of animals with a RT less than 40 seconds [2, 10]: 60%
% of animals with a RT less than 40 seconds [2, 16]: 30%
% of animals with a RT less than 40 seconds [2, 11]: 100%
% of animals with a RT less than 40 seconds [2, 12]: 100%
% of animals with a RT less than 40 seconds [2, 13]: 100%
% of animals with a RT less than 40 seconds [2, 14]: 80%
% of animals with a RT less than 40 seconds [2, 15]: 90%
% of animals with a RT less than 40 seconds [2, 17]: 20%
% inhibition of reactions: L (lacrymation) [3, 6]: 100%
% inhibition of reactions: S (salivation) [3, 6]: 80%
% inhibition of reactions: T (trembling) [3, 6]: 80%
% inhibition of reactions: L (lacrymation) [3, 7]: 100%
% inhibition of reactions: S (salivation) [3, 7]: 90%
% inhibition of reactions: T (trembling) [3, 7]: 100%
% inhibition of reactions: L (lacrymation) [3, 8]: 70%
% inhibition of reactions: S (salivation) [3, 8]: 30%
% inhibition of reactions: T (trembling) [3, 8]: 30%
% inhibition of reactions: L (lacrymation) [3, 9]: 30%
% inhibition of reactions: S (salivation) [3, 9]: 10%
% inhibition of reactions: T (trembling) [3, 9]: 0%
% inhibition of reactions: L (lacrymation) [3, 10]: 11%
% inhibition of reactions: S (salivation) [3, 10]: 0%
% inhibition of reactions: L (lacrymation) [3, 16]: 10%
% inhibition of reactions: S (salivation) [3, 16]: 0%
% inhibition of reactions: T (trembling) [3, 16]: 0%
% inhibition of reactions: L (lacrymation) [3, 11]: 100%
% inhibition of reactions: S (salivation) [3, 11]: 100%
% inhibition of reactions: T (trembling) [3, 11]: 100%
% inhibition of reactions: L (lacrymation) [3, 12]: 100%
% inhibition of reactions: S (salivation) [3, 12]: 100%
% inhibition of reactions: T (trembling) [3, 12]: 100%
% inhibition of reactions: L (lacrymation) [3, 13]: 80%
% inhibition of reactions: S (salivation) [3, 13]: 60%
% inhibition of reactions: T (trembling) [3, 13]: 70%
% inhibition of reactions: L (lacrymation) [3, 14]: 10%
% inhibition of reactions: S (salivation) [3, 14]: 20%
% inhibition of reactions: T (trembling) [3, 14]: 0%
% inhibition of reactions: L (lacrymation) [3, 15]: 67%
% inhibition of reactions: S (salivation) [3, 15]: 20%
% inhibition of reactions: T (trembling) [3, 15]: 20%
% inhibition of reactions: L (lacrymation) [3, 17]: 20%
% inhibition of reactions: S (salivation) [3, 17]: 20%
% inhibition of reactions: T (trembling) [3, 17]: 10%
antioxotremorine activity (in words) ([3]; s.c. sesame oil, mice, Table II): prolonged antioxotremorine activity

OCCN1C2CCC1CC(=C1c3ccccc3CSc3ccccc31)C2 (racemic) [Example 1, dl N-(β-hydroxyethyl)-11-(3'-nortropylidene)-6,11-dihydrodibenzo(b,e)thiepine hydrochloride]
LD50 at 48 h ([4]; ip, after 2 days of observation): ~100 mg/kg
LD50 at 120 h ([4]; sc, after 5 days of observation): ~500 mg/kg
% of animals with a RT less than 40 seconds [2, 18]: 100%
% of animals with a RT less than 40 seconds [2, 19]: 10%
% of animals with a RT less than 40 seconds [2, 20]: 100%
% of animals with a RT less than 40 seconds [2, 21]: 20%
antagonistic activity against antinociceptive activity of oxotremorine (in words) ([2]; s.c., mice, Table III): important antagonistic activity against antinociceptive activity of oxotremorine which is manifested for several hours
ED50 ([5]; read-out: ED50 for parasympathomimetic reactions (salivation and lacrymation)): 1 to 2 mg/kg
ED50 ([5]; read-out: ED50 for trembling): 1 mg/kg
anticholinergic activity (in words) ([5]; antitremorine test, i.p.): important anticholinergic activity
% inhibition of reactions: L (lacrymation) [3, 18]: 100%
% inhibition of reactions: S (salivation) [3, 18]: 100%
% inhibition of reactions: T (trembling) [3, 18]: 100%
% inhibition of reactions: L (lacrymation) [3, 19]: 0%
% inhibition of reactions: S (salivation) [3, 19]: 0%
% inhibition of reactions: T (trembling) [3, 19]: 0%
% inhibition of reactions: L (lacrymation) [3, 20]: 100%
% inhibition of reactions: S (salivation) [3, 20]: 100%
% inhibition of reactions: T (trembling) [3, 20]: 100%
% inhibition of reactions: L (lacrymation) [3, 21]: 0%
% inhibition of reactions: S (salivation) [3, 21]: 0%
% inhibition of reactions: T (trembling) [3, 21]: 0%
